Test results from ChEMBL document CHEMBL4152250, “Antibacterial and anti-TB tat-peptidomimetics with improved efficacy and half-life” (Eur J Med Chem, 2018).
Values after ≈ are worked out from the molar mass of the structure shown. Numbered stars: 1 amine (or outer) side, 2 acyl side, 3 side chain; on linkers, the order of the positions; unused ones are H or OH. Square brackets hold non-standard residues; d marks the D form. Peptide text beside a SMILES is read from it. Pro(N-(CH2)3Gua,cis-4-NH-) = N=C(N)NCCCN1C[C@@H](N[*:1])C[C@H]1C(=O)[*:2]; Pro(cis-4-guanidino) = NC(N)=N[C@@H]1CN[C@H](C(=O)O)C1; X1 = NCCCN1C[C@@H](N[*:1])C[C@H]1C(=O)[*:2]; Ethylenediamine = C(CN[*:2])N[*:1]; βAla = NCCC(=O)O

Columns and labels:
[1] = test system: Mycobacterium tuberculosis; assay: Antitubercular activity against multidrug-resistant active stage of Mycobacterium tuberculosis H37Ra after 8 days by XRMA; assay type: functional, organism-based; settings: 192 h
[2] = test system: Mycobacterium tuberculosis; assay: Antitubercular activity against multidrug-resistant dormant stage of Mycobacterium tuberculosis H37Ra after 12 days by XRMA; assay type: functional, organism-based; settings: 288 h

CC(=O)N[C@@H](Cc1ccccc1)C(=O)NCC(=O)N[C@@H](CCCNC(=N)N)C(=O)N[C@@H](CCCCN)C(=O)N[C@@H](CCCCN)C(=O)N[C@@H](CCCNC(=N)N)C(=O)N[C@@H](CCCNC(=N)N)C(=O)N[C@@H](CCC(N)=O)C(=O)N[C@@H](CCCNC(=N)N)C(=O)N[C@@H](CCCNC(=N)N)C(=O)N[C@H]1C[C@@H](C(=O)NCCC(N)=O)N(CCCNC(=N)N)C1 (Ac-FGRKKRRQRR[Pro(N-(CH2)3Gua,cis-4-NH-)][βAla]-NH2)
IC50 [1]: 1850 nM | MIC [1]: 22.1 µM (≈ 37.8 µg/mL) | IC50 [2]: 1280 nM | MIC [2]: 12 µM (≈ 20.5 µg/mL)

CC(=O)N[C@@H](Cc1ccccc1)C(=O)NCC(=O)N[C@H]1C[C@@H](C(=O)N[C@@H](CCCCN)C(=O)N[C@@H](CCCCN)C(=O)N[C@@H](CCCNC(=N)N)C(=O)N[C@H]2C[C@@H](C(=O)N[C@@H](CCC(N)=O)C(=O)N[C@H]3C[C@@H](C(=O)N[C@@H](CCCNC(=N)N)C(=O)N[C@H]4C[C@@H](C(=O)NCCC(N)=O)N(CCCNC(=N)N)C4)N(CCCNC(=N)N)C3)N(CCCNC(=N)N)C2)N(CCCNC(=N)N)C1
IC50 [1]: 3100 nM | MIC [1]: 24.6 µM (≈ 46.2 µg/mL) | IC50 [2]: 2360 nM | MIC [2]: 11.7 µM (≈ 22 µg/mL)

NC(=O)c1cnccn1 [PYRAZINAMIDE]
MIC [1]: > 100 µM | MIC [2]: > 100 µM

CC(=O)N[C@@H](Cc1ccccc1)C(=O)NCC(=O)N[C@@H](CCCNC(=N)N)C(=O)N[C@@H](CCCCN)C(=O)N[C@@H](CCCCN)C(=O)N1C[C@@H](NC(=N)N)C[C@H]1C(=O)N[C@@H](CCCNC(=N)N)C(=O)N[C@@H](CCC(N)=O)C(=O)N[C@@H](CCCNC(=N)N)C(=O)N[C@@H](CCCNC(=N)N)C(=O)N[C@@H](CCCNC(=N)N)C(=O)NCCC(N)=O (Ac-FGRKK[Pro(cis-4-guanidino)]RQRRR[βAla]-NH2)
IC50 [1]: 2680 nM | MIC [1]: 15.1 µM (≈ 25 µg/mL) | IC50 [2]: 3270 nM | MIC [2]: 14.5 µM (≈ 24 µg/mL)

CC(=O)N[C@@H](Cc1ccccc1)C(=O)NCC(=O)N1C[C@@H](NC(=N)N)C[C@H]1C(=O)N[C@@H](CCCCN)C(=O)N[C@@H](CCCCN)C(=O)N[C@@H](CCCNC(=N)N)C(=O)N1C[C@@H](NC(=N)N)C[C@H]1C(=O)N[C@@H](CCC(N)=O)C(=O)N[C@@H](CCCNC(=N)N)C(=O)N[C@@H](CCCNC(=N)N)C(=O)N1C[C@@H](NC(=N)N)C[C@H]1C(=O)NCCC(N)=O (Ac-FG[Pro(cis-4-guanidino)]KKR[Pro(cis-4-guanidino)]QRR[Pro(cis-4-guanidino)][βAla]-NH2)
IC50 [1]: 1320 nM | MIC [1]: 15 µM (≈ 24.7 µg/mL) | IC50 [2]: 500 nM | MIC [2]: 6 µM (≈ 9.9 µg/mL)

CC(=O)N[C@@H](Cc1ccccc1)C(=O)NCC(=O)N[C@H]1C[C@@H](C(=O)N[C@@H](CCCCN)C(=O)N[C@@H](CCCCN)C(=O)N[C@@H](CCCNC(=N)N)C(=O)N[C@H]2C[C@@H](C(=O)N[C@@H](CCC(N)=O)C(=O)N[C@@H](CCCNC(=N)N)C(=O)N[C@@H](CCCNC(=N)N)C(=O)N[C@H]3C[C@@H](C(=O)NCCC(N)=O)N(CCCN)C3)N(CCCN)C2)N(CCCN)C1 (Ac-FG[X1]KKR[X1]QRR[X1][βAla]-NH2)
IC50 [1]: 2600 nM | MIC [1]: 23.5 µM (≈ 39.8 µg/mL) | IC50 [2]: 1460 nM | MIC [2]: 14 µM (≈ 23.7 µg/mL)

CC(=O)N[C@@H](Cc1ccccc1)C(=O)NCC(=O)N[C@@H](CCCNC(=N)N)C(=O)N[C@@H](CCCCN)C(=O)N[C@@H](CCCCN)C(=O)N[C@@H](CCCNC(=N)N)C(=O)N[C@@H](CCCNC(=N)N)C(=O)N[C@@H](CCC(N)=O)C(=O)N[C@@H](CCCNC(=N)N)C(=O)N[C@@H](CCCNC(=N)N)C(=O)N1C[C@@H](NC(=N)N)C[C@H]1C(=O)NCCC(N)=O (Ac-FGRKKRRQRR[Pro(cis-4-guanidino)][βAla]-NH2)
IC50 [1]: 3100 nM | MIC [1]: 22.5 µM (≈ 37.2 µg/mL) | IC50 [2]: 3100 nM | MIC [2]: 12.9 µM (≈ 21.3 µg/mL)

CC(=O)N[C@@H](Cc1ccccc1)C(=O)NCC(=O)N[C@@H](CCCNC(=N)N)C(=O)N[C@@H](CCCCN)C(=O)N[C@@H](CCCCN)C(=O)N[C@@H](CCCNC(=N)N)C(=O)N[C@@H](CCCNC(=N)N)C(=O)N[C@@H](CCC(N)=O)C(=O)N[C@@H](CCCNC(=N)N)C(=O)N[C@@H](CCCNC(=N)N)C(=O)N[C@@H](CCCNC(=N)N)C(N)=O
IC50 [1]: > 60000 nM | IC50 [2]: 19200 nM

CC(=O)N[C@@H](Cc1ccccc1)C(=O)NCC(=O)N1C[C@@H](NC(=N)N)C[C@H]1C(=O)N[C@@H](CCCCN)C(=O)N[C@@H](CCCCN)C(=O)N[C@@H](CCCNC(=N)N)C(=O)N1C[C@@H](NC(=N)N)C[C@H]1C(=O)N[C@@H](CCC(N)=O)C(=O)N1C[C@@H](NC(=N)N)C[C@H]1C(=O)N[C@@H](CCCNC(=N)N)C(=O)N1C[C@@H](NC(=N)N)C[C@H]1C(=O)NCCC(N)=O (Ac-FG[Pro(cis-4-guanidino)]KKR[Pro(cis-4-guanidino)]Q[Pro(cis-4-guanidino)]R[Pro(cis-4-guanidino)][βAla]-NH2)
IC50 [1]: 10800 nM | MIC [1]: 26.4 µM (≈ 43.5 µg/mL) | IC50 [2]: 1900 nM | MIC [2]: 21.5 µM (≈ 35.4 µg/mL)

CC(=O)N[C@@H](Cc1ccccc1)C(=O)NCC(=O)N[C@@H](CCCNC(=N)N)C(=O)N[C@@H](CCCCN)C(=O)N[C@@H](CCCCN)C(=O)N[C@H]1C[C@@H](C(=O)N[C@@H](CCCNC(=N)N)C(=O)N[C@@H](CCC(N)=O)C(=O)N[C@@H](CCCNC(=N)N)C(=O)N[C@@H](CCCNC(=N)N)C(=O)N[C@@H](CCCNC(=N)N)C(=O)NCCC(N)=O)N(CCCNC(=N)N)C1 (Ac-FGRKK[Pro(N-(CH2)3Gua,cis-4-NH-)]RQRRR[βAla]-NH2)
IC50 [1]: 2000 nM | MIC [1]: 13 µM (≈ 22.2 µg/mL) | IC50 [2]: 1100 nM | MIC [2]: 10.6 µM (≈ 18.1 µg/mL)

CC(=O)N[C@@H](Cc1ccccc1)C(=O)NCC(=O)N[C@H]1C[C@@H](C(=O)N[C@@H](CCCCN)C(=O)N[C@@H](CCCCN)C(=O)N[C@@H](CCCNC(=N)N)C(=O)N[C@H]2C[C@@H](C(=O)N[C@@H](CCC(N)=O)C(=O)N[C@H]3C[C@@H](C(=O)N[C@@H](CCCNC(=N)N)C(=O)N[C@H]4C[C@@H](C(=O)NCCN)N(CCCN)C4)N(CCCN)C3)N(CCCN)C2)N(CCCN)C1 (Ac-FG[X1]KKR[X1]Q[X1]R[X1]-Ethylenediamine)
IC50 [1]: 2800 nM | MIC [1]: 12 µM (≈ 20.2 µg/mL) | IC50 [2]: 1080 nM | MIC [2]: 6.6 µM (≈ 11.1 µg/mL)

CO[C@H]1/C=C/O[C@@]2(C)Oc3c(C)c(O)c4c(O)c(c(/C=N/N5CCN(C)CC5)c(O)c4c3C2=O)NC(=O)/C(C)=C\C=C\[C@H](C)[C@H](O)[C@@H](C)[C@@H](O)[C@@H](C)[C@H](OC(C)=O)[C@@H]1C [RIFAMPIN]
MIC [1]: > 12.1 µM | MIC [2]: > 12.1 µM

CC(=O)N[C@@H](Cc1ccccc1)C(=O)NCC(=O)N[C@H]1C[C@@H](C(=O)N[C@@H](CCCCN)C(=O)N[C@@H](CCCCN)C(=O)N[C@@H](CCCNC(=N)N)C(=O)N[C@H]2C[C@@H](C(=O)N[C@@H](CCC(N)=O)C(=O)N[C@@H](CCCNC(=N)N)C(=O)N[C@@H](CCCNC(=N)N)C(=O)N[C@H]3C[C@@H](C(=O)NCCC(N)=O)N(CCCNC(=N)N)C3)N(CCCNC(=N)N)C2)N(CCCNC(=N)N)C1 (Ac-FG[Pro(N-(CH2)3Gua,cis-4-NH-)]KKR[Pro(N-(CH2)3Gua,cis-4-NH-)]QRR[Pro(N-(CH2)3Gua,cis-4-NH-)][βAla]-NH2)
IC50 [1]: 6400 nM | MIC [1]: 25.3 µM (≈ 46.1 µg/mL) | IC50 [2]: 670 nM | MIC [2]: 10.4 µM (≈ 18.9 µg/mL)
